Laboratory results reported in US8207178B2 (priority 2007, dated 2012).

How the values were obtained:
[1] = test system: HIV-1 K103N-L100I mutant; experiment: microbe, parasite or virus in culture; format: cell-based, human immunodeficiency virus type 1 (HIV-1); details: Human immunodeficiency virus 1, HeLa, read-out: EC50 mutant K103N-L100I, mutant K103N-L100I
[2] = test system: wild type HIV-1; experiment: microbe, parasite or virus in culture; format: cell-based, human immunodeficiency virus type 1 (HIV-1); details: Human immunodeficiency virus 1, Hela-JC53

Cc1cc(-c2ccncn2)cc(C)c1Oc1nc(Nc2ccc(C#N)cc2)nc2ccn(C)c12 [Example 48, 4-(4-(2,6-Dimethyl-4-(pyrimidin-4-yl)phenoxy)-5-methyl-5H-pyrrolo [3,2-d]pyrimidin-2-ylamino)benzonitrile]
EC50 [1]: 0.001 to 0.01 µM
EC50 [2]: 0.001 to 0.01 µM

Cc1cc(-c2ccnc3ccccc23)cc(C)c1Oc1nc(Nc2ccc(C#N)cc2)nc2ccn(C)c12 [Example 37]
EC50 [1]: > 0.01 µM
EC50 [2]: 0.001 to 0.01 µM

Cc1cc(-c2ccc(C(=O)N(C)C)cn2)cc(C)c1Oc1nc(Nc2ccc(C#N)cc2)nc2[nH]cnc12 [Example 128, 6-(4-(2-(4-cyanophenylamino)-9H-purin-6-yloxy)-3,5-dimethylphenyl)-N,N-dimethylnicotinamide]
EC50 [1]: > 0.01 µM
EC50 [2]: 0.001 to 0.01 µM

Cc1cc(-c2ccc(S(=O)(=O)NC3CC3)cc2)cc(C)c1Oc1nc(Nc2ccc(C#N)cc2)nc2ccn(C)c12 [Example 85, 4′-(2-(4-cyanophenylamino)-5-methyl-5H-pyrrolo[3,2-d]pyrimidin-4-yloxy)-N-cyclopropyl-3′,5′-dimethylbiphenyl-4-sulfonamide]
EC50 [1]: > 0.01 µM
EC50 [2]: 0.001 to 0.01 µM

Cc1cc(-c2cc3ccccc3[nH]2)cc(C)c1Oc1nc(Nc2ccc(C#N)cc2)nc2ccn(C)c12 [Example 86, 4-(4-(4-(1H-indol-2-yl)-2,6-dimethylphenoxy)-5-methyl-5H-pyrrolo[3,2-d]pyrimidin-2-ylamino)benzonitrile]
EC50 [1]: > 0.01 µM
EC50 [2]: > 0.01 µM

Cc1cc(-c2ccc(C(N)=O)cc2)cc(Cl)c1Oc1nc(Nc2ccc(C#N)cc2)nc2ncn(C)c12 [Example 116, 3′-chloro-4′-(2-(4-cyanophenylamino)-7-methyl-7H-purin-6-yloxy)-5′-methylbiphenyl-4-carboxamide]
EC50 [1]: 0.001 to 0.01 µM
EC50 [2]: < 0.001 µM

Cc1cc(-c2ccnn2C)cc(C)c1Oc1nc(Nc2ccc(C#N)cc2)nc2nc[nH]c12 [Example 47, 4-(6-(2,6-Dimethyl-4-(1-methyl-1H-pyrazol-5-yl)phenoxy)-7H-purin-2-ylamino)benzonitrile]
EC50 [1]: > 0.01 µM
EC50 [2]: 0.001 to 0.01 µM

Cc1cc(-c2ccc3c(c2)OCCO3)cc(C)c1Oc1nc(Nc2ccc(C#N)cc2)nc2ccn(C)c12 [Example 68, 4-(4-(4-(2,3-dihydrobenzo [b][1,4]dioxin-6-yl)-2,6-dimethylbipheoxy)-5-methyl-5H-pyrrolo[3,2-d]pyrimidin-2-ylamino) benzonitrile]
EC50 [1]: > 0.01 µM
EC50 [2]: < 0.001 µM

Cc1cc(-c2ccsc2C#N)cc(C)c1Oc1nc(Nc2ccc(C#N)cc2)nc2ccn(C)c12 [Example 34, 3-(4-(2-(4-Cyanophenylamino)-5-methyl-5H-pyrrolo [3,2-d]pyrimidin-4-yloxy)-3,5-dimethylphenyl) thiophene-2-carbonitrile]
EC50 [1]: 0.001 to 0.01 µM
EC50 [2]: 0.001 to 0.01 µM

Cc1cc(-c2ccc(C(N)=O)cc2F)cc(C)c1Oc1nc(Nc2ccc(C#N)cc2)nc2ncn(C)c12 [Example 55, 4′-(2-(4-Cyanophenylamino)-7-methyl-7H-purin-6-yloxy)-2-fluoro-3′,5′-dimethylbiphenyl-4-carboxamide]
EC50 [1]: 0.001 to 0.01 µM
EC50 [2]: 0.001 to 0.01 µM

Cc1cc(-c2cncc3ccccc23)cc(C)c1Oc1nc(Nc2ccc(C#N)cc2)nc2ccn(C)c12 [Example 40, 4-(4-(4-(Isoquinolin-4-yl)-2,6-dimethylphenoxy)-5-methyl-5H-pyrrolo[3,2-d]pyrimidin-2-ylamino) benzonitrile]
EC50 [1]: > 0.01 µM
EC50 [2]: 0.001 to 0.01 µM

Cc1cc(-c2ccc(S(N)(=O)=O)cc2)cc(C)c1Oc1nc(Nc2ccc(C#N)cc2)nc2c1ncn2C [Example 52, 4′-(2-(4-Cyanophenylamino)-9-methyl-9H-purin-6-yloxy)-3′,5′-dimethylbiphenyl-4-sulfonamide]
EC50 [1]: 0.001 to 0.01 µM
EC50 [2]: < 0.001 µM

Cc1cc(-c2cccc(C(=O)N(C)C)c2)cc(C)c1Oc1nc(Nc2ccc(C#N)cc2)nc2ccn(C)c12 [Example 36, 4′-(2-(4-Cyanophenylamino)-5-methyl-5H-pyrrolo[3,2-d]pyrimidin-4-yloxy)-N,N,3′,5′-tetramethylbiphenyl-3-carboxamide]
EC50 [1]: > 0.01 µM
EC50 [2]: 0.001 to 0.01 µM

Cc1cc(-c2ccncc2Cl)cc(C)c1Oc1nc(Nc2ccc(C#N)cc2)nc2ccn(C)c12 [Example 11, 4-(4-(4-(3-Chloropyridin-4-yl)-2,6-dimethylphenoxy)-5-methyl-5H-pyrrolo[3,2-d]pyrimidin-2-ylamino) benzonitrile]
EC50 [1]: < 0.001 µM
EC50 [2]: < 0.001 µM

Cc1cc(C#N)cc(C)c1Nc1nc(Oc2ccc(-c3ccncc3)cc2)c2nc[nH]c2n1 [Example 106, 3,5-Dimethyl-4-(6-(4-(pyridin-4-yl)phenoxy)-9H-purin-2-ylamino)benzonitrile]
EC50 [1]: > 0.01 µM
EC50 [2]: > 0.01 µM

Cc1cc(-c2ccnnc2)cc(C)c1Oc1nc(Nc2ccc(C#N)cc2)nc2ccn(C)c12 [Example 57, 4-(4-(2,6-dimethyl-4-(pyridazin-4-yl)phenoxy)-5-methyl-5H-pyrrolo[3,2-d]pyrimidin-2-ylamino) benzonitrile]
EC50 [1]: 0.001 to 0.01 µM
EC50 [2]: < 0.001 µM

Cc1cc(-c2cc(F)cc(F)c2)cc(C)c1Oc1nc(Nc2ccc(C#N)cc2)nc2ccn(C)c12 [Example 65, 4-(4-(3′,5′-difluoro-3,5-dimethylbiphenyl-4-yloxy)-5-methyl-5H-pyrrolo[3,2-d]pyrimidin-2-ylamino) benzonitrile]
EC50 [1]: > 0.01 µM
EC50 [2]: < 0.001 µM

Cc1cc(-c2ccc(C#N)nc2)cc(C)c1Oc1nc(Nc2ccc(C#N)cc2)nc2ccn(C)c12 [Example 84, 5-(4-(2-(4-cyanophenylamino)-5-methyl-5H-pyrrolo[3,2-d]pyrimidin-4-yloxy)-3,5-dimethyl-phenyl)picolinonitrile]
EC50 [1]: 0.001 to 0.01 µM
EC50 [2]: 0.001 to 0.01 µM

Cc1cc(-c2cccnc2)cc(C)c1Oc1nc(Nc2ccc(C#N)cc2)nc2ccn(C)c12 [Example 12, 4-(4-(2,6-Dimethyl-4-(pyridin-3-yl)phenoxy)-5-methyl-5H-pyrrolo[3,2-d]pyrimidin-2-ylamino)benzonitrile]
EC50 [1]: > 0.01 µM
EC50 [2]: 0.001 to 0.01 µM

Cc1cc(-c2ccc(C(N)=O)nc2)cc(C)c1Oc1nc(Nc2ccc(C#N)cc2)nc2ccn(C)c12 [Example 60, 5-(4-(2-(4-Cyanophenylamino)-5-methyl-5H-pyrrolo[3,2-d]pyrimidin-4-yloxy)-3,5-dimethyl-phenyl)picolinamide]
EC50 [1]: > 0.01 µM
EC50 [2]: 0.001 to 0.01 µM

Cc1cc(-c2cc(F)c(F)c(F)c2)cc(C)c1Oc1nc(Nc2ccc(C#N)cc2)nc2ccn(C)c12 [Example 66]
EC50 [1]: 0.001 to 0.01 µM
EC50 [2]: < 0.001 µM

N#Cc1ccc(Nc2nc(Oc3c(Cl)cc(-c4ccncc4)cc3Cl)c3[nH]cnc3n2)cc1 [Example 104, 4-(6-(2,6-Dichloro-4-(pyridin-4-yl)phenoxy)-7H-purin-2-ylamino)benzonitrile]
EC50 [1]: 0.001 to 0.01 µM
EC50 [2]: 0.001 to 0.01 µM

COc1ccc(Cn2cnc3nc(Nc4ccc(C#N)cc4)nc(Oc4ccc(-c5ccncc5)cc4Cl)c32)cc1 [Example 101, 4-(6-(2-Chloro-4-(pyridin-4-yl)phenoxy)-7-(4-methoxybenzyl)-7H-purin-2-ylamino)benzonitrile]
EC50 [1]: > 0.01 µM
EC50 [2]: > 0.01 µM

Cc1cc(-c2cnn(Cc3ccccc3)c2)cc(C)c1Oc1nc(Nc2ccc(C#N)cc2)nc2ccn(C)c12 [Example 76, 4-(4-(4-(1-benzyl-1H-pyrazol-4-yl)-2,6-dimethylphenoxy)-5-methyl-5H-pyrrolo[3,2-d]pyrimidin-2-ylamino)benzonitrile]
EC50 [1]: > 0.01 µM
EC50 [2]: 0.001 to 0.01 µM

Cc1cc(-c2cccc(N(C)C)c2)cc(C)c1Oc1nc(Nc2ccc(C#N)cc2)nc2ccn(C)c12 [Example 33, 4-(4-(3′-(Dimethylamino)-3,5-dimethylbiphenyl-4-yloxy)-5-methyl-5H-pyrrolo [3,2-d]pyrimidin-2-ylamino) benzonitrile]
EC50 [1]: > 0.01 µM
EC50 [2]: > 0.01 µM

Cc1cc(-c2ccncc2)cc(C)c1Oc1nc(Nc2ccc(C#N)cc2)nc2ncn(C)c12 [Example 107, 4-(6-(2,6-Dimethyl-4-(pyridin-4-yl)phenoxy)-7-methyl-7H-purin-2-ylamino)benzonitrile]
EC50 [1]: 0.001 to 0.01 µM
EC50 [2]: 0.001 to 0.01 µM

Cc1cc(-c2ccc(C(=O)N3CCC(C#N)C3)cn2)cc(C)c1Oc1nc(Nc2ccc(C#N)cc2)nc2[nH]cnc12 (stereo not shown) [Example 127, 1-(6-(4-(2-(4-cyanophenylamino)-9H-purin-6-yloxy)-3,5-dimethylphenyl)nicotinoyl)pyrrolidine-3-carbonitrile]
EC50 [1]: > 0.01 µM
EC50 [2]: > 0.01 µM

Cc1cc(-c2ccccc2S(=O)(=O)NC(C)(C)C)cc(C)c1Oc1nc(Nc2ccc(C#N)cc2)nc2ccn(C)c12 [Example 74, N-tert-butyl-4′-(2-(4-cyanophenylamino)-5-methyl-5H-pyrrolo[3,2-d]pyrimidin-4-yloxy)-3′,5′-dimethylbiphenyl-2-sulfonamide]
EC50 [1]: > 0.01 µM
EC50 [2]: > 0.01 µM

Cc1cc(-c2ccc(N(C)C)cc2)cc(C)c1Oc1nc(Nc2ccc(C#N)cc2)nc2ccn(C)c12 [Example 22, 4-(4-(4′-(Dimethylamino)-3,5-dimethylphenyl-4-yloxy)-5-methyl-5H-pyrrolo[3,2-d]pyrimidin-2-ylamino)benzonitrile]
EC50 [1]: > 0.01 µM
EC50 [2]: 0.001 to 0.01 µM

Cc1cc(-c2ccc(C(=O)NC3CC3)cc2)cc(C)c1Oc1nc(Nc2ccc(C#N)cc2)nc2ccn(C)c12 [Example 92, 4′-(2-(4-cyanophenylamino)-5-methyl-5H-pyrrolo[3,2-d]pyrimidin-4-yloxy)-N-cyclopropyl-3′,5′-dimethylbiphenyl-4-carboxamide]
EC50 [1]: > 0.01 µM
EC50 [2]: > 0.01 µM

Cc1cc(-c2ccnc(N3CCOCC3)c2Cl)cc(C)c1Oc1nc(Nc2ccc(C#N)cc2)nc2ccn(C)c12 [Example 79, 4-(4-(4-(3-chloro-2-morpholinopyridin-4-yl)-2,6-dimethylphenoxy)-5-methyl-5H-pyrrolo[3,2-d]pyrimidin-2-ylamino)benzonitrile]
EC50 [1]: 0.001 to 0.01 µM
EC50 [2]: 0.001 to 0.01 µM

Cc1cc(-c2c(C)noc2C)cc(C)c1Oc1nc(Nc2ccc(C#N)cc2)nc2ccn(C)c12 [Example 35, 4-(4-(4-(3,5-Dimethylisoxazol-4-yl)-2,6-dimethylphenoxy)-5-methyl-5H-pyrrolo[3,2-d]pyrimidin-2-ylamino) benzonitrile]
EC50 [1]: 0.001 to 0.01 µM
EC50 [2]: 0.001 to 0.01 µM
